{"source": "patent US4673671A", "about": "“Method for improving the absorption and effectiveness of a catecholamine compound” (SIMES Societa Italiana Medicinali e Sintetici S.p.A., priority 1984, dated 1987)", "key": {"[1]": {"test_system": "renal blood flow and renal vascular resistances", "test": "Cardiovascular parameters (renal blood flow and renal vascular resistances) in anesthetized dogs, intraduodenal administration", "format": "in vivo, dog", "settings": "for selectivity and duration of renal effect (in words) / duration of effects on renal blood flow and resistances: 5 mg/kg; for renal vasodilating effect (in words): comparison of N-methyldopamine 4-O-dihydrogenphosphate with N-methyldopamine", "protocol": "The activity of N-methyldopamine 4-O-dihydrogenphosphate on cardiovascular parameters in anesthetized dogs was compared with that of N-methyldopamine; both compounds were administered by intraduodenal route."}, "[2]": {"test_system": "blood pressure", "test": "Blood pressure in spontaneous hypertensive rats, oral administration", "format": "in vivo, rat", "source_text": "N,N-di-n-propyldopamine 4-O-dihydrogenphosphate reduced blood pressure by 30-35% (p<0.01) when orally administered to spontaneous hypertensive rats at a dose of 0.29 mmoles/kg; the effect lasted five hours while N,N-di-n-propyl dopamine was ineffective at the same dosage and also at 0.58 mmoles/kg."}, "[3]": {"test_system": "urine excretion", "test": "Urine excretion in normally hydrated rats, oral administration", "format": "in vivo, rat", "settings": "0.29 mmoles/kg; for increase of urine excretion: p<0.05", "source_text": "These diuretic properties are useful in the therapy of hypertension and cardiac and renal failure."}, "[4]": {"settings": "anesthetized dogs, i.d., 0.005 mmoles/kg (1.25 mg/kg), n=6"}, "[5]": {"settings": "anesthetized dogs, i.d., 0.04 mmoles/kg (10 mg/kg), n=7, **P <0.01"}, "[6]": {"settings": "anesthetized dogs, i.d., 0.035 mmoles/kg (7.1 mg/kg), n=5"}}}
{"molecule": "N[C@@H](CCC(=O)NCCc1ccc(OP(=O)(O)O)c(O)c1)C(=O)O", "note": "[N^5-[2-(3,4-dihydroxyphenyl)-ethyl]-L-glutamine 4-O-dihydrogenphosphate]", "values": [{"measurement": "selectivity and duration of renal effect (in words)", "setting": "[1]", "result": "selective and long lasting"}, {"measurement": "decrease in renal resistances", "setting": "[1]; 5 mg/kg (0.014 mmoles/kg)", "result": -18, "unit": "%"}, {"measurement": "increase in renal blood flow", "setting": "[1]; 5 mg/kg (0.014 mmoles/kg)", "result": "+25%"}]}
{"molecule": "CCCN(CCC)CCc1ccc(O)c(O)c1", "note": "[N,N-di-n-propyl dopamine, N,N-di-n-propyldopamine, reference compound]", "values": [{"measurement": "effect on blood pressure (in words)", "setting": "[2]; 0.29 mmoles/kg", "result": "ineffective"}, {"measurement": "effect on blood pressure (in words)", "setting": "[2]; 0.58 mmoles/kg", "result": "ineffective"}]}
{"molecule": "NCCc1ccc(O)c(O)c1", "note": "[dopamine, 1-(3,4-dihydroxyphenyl)-2-amino-ethane, reference compound]", "values": [{"measurement": "effect on renal blood flow and renal resistances (in words)", "setting": "[1]; 10 mg/kg (0.053 mmoles/kg)", "result": "ineffective"}]}
{"molecule": "CNCCc1ccc(O)c(OP(=O)(O)O)c1", "note": "[N-methyldopamine 3-O-dihydrogenphosphate]", "values": [{"measurement": "increase of urine excretion", "setting": "[3]", "result": 180, "unit": "%"}]}
{"molecule": "CNCCc1ccc(OP(=O)(O)O)c(O)c1", "note": "[N-methyldopamine 4-O-dihydrogenphosphate]", "values": [{"measurement": "duration of renal vasodilating action", "setting": "[1]; anesthetized dogs, i.d.", "result": "about four"}, {"measurement": "modification of other hemodynamic parameters", "setting": "[1]; anesthetized dogs, i.d.", "result": "without any modification of other hemodynamic parameters"}, {"measurement": "Maximum percentage variation of renal blood flow", "setting": "[1]; [4]", "result": "+14.2%"}, {"measurement": "Maximum percentage variation of renal vascular resistances", "setting": "[1]; [4]", "result": -11.2, "unit": "%"}, {"measurement": "Maximum percentage variation of renal vascular resistances", "setting": "[1]; anesthetized dogs, i.d., 0.01 mmoles/kg (2.5 mg/kg), n=6", "result": -14.1, "unit": "%"}, {"measurement": "Maximum percentage variation of renal blood flow", "setting": "[1]; anesthetized dogs, i.d., 0.01 mmoles/kg (2.5 mg/kg), n=6, **P <0.01", "result": "+18.5%"}, {"measurement": "Maximum percentage variation of renal blood flow", "setting": "[1]; anesthetized dogs, i.d., 0.02 mmoles/kg (5 mg/kg), n=7, **P <0.01", "result": "+36.4%"}, {"measurement": "Maximum percentage variation of renal vascular resistances", "setting": "[1]; anesthetized dogs, i.d., 0.02 mmoles/kg (5 mg/kg), n=7, *P <0.05", "result": -24.5, "unit": "%"}, {"measurement": "Maximum percentage variation of renal blood flow", "setting": "[1]; [5]", "result": "+31.7%"}, {"measurement": "Maximum percentage variation of renal vascular resistances", "setting": "[1]; [5]", "result": -28.1, "unit": "%"}, {"measurement": "renal vasodilating effect (in words)", "setting": "[1]; anesthetized dogs, i.d.", "result": "improved effectiveness, either in terms of activity or duration of action or selective renal vasodilating action"}, {"measurement": "absorption", "setting": "[1]; i.d., compared with N-methyldopamine", "result": "improved absorption"}, {"measurement": "increase of urine excretion", "setting": "[3]", "result": 170, "unit": "%"}]}
{"molecule": "CNCCc1ccc(O)c(O)c1", "note": "[N-methyldopamine, reference compound]", "values": [{"measurement": "accompanying effect on blood pressure", "setting": "[1]; anesthetized dogs, i.d.", "result": "undesired increase of blood pressure"}, {"measurement": "accompanying effect on the heart", "setting": "[1]; anesthetized dogs, i.d.", "result": "stimulation of the heart"}, {"measurement": "duration of renal vasodilating action", "setting": "[1]; anesthetized dogs, i.d.", "result": "two"}, {"measurement": "Maximum percentage variation of renal blood flow", "setting": "[1]; [6]", "result": "+14.9%"}, {"measurement": "Maximum percentage variation of renal vascular resistances", "setting": "[1]; [6]", "result": -14, "unit": "%"}, {"measurement": "renal vasodilating effect (in words)", "setting": "[1]; anesthetized dogs, i.d.", "result": "smaller effect"}, {"measurement": "effect on urine excretion (in words)", "setting": "[3]", "result": "ineffective"}]}
{"molecule": "CCCN(CCC)CCc1ccc(OP(=O)(O)O)c(O)c1", "note": "[N,N-di-n-propyldopamine 4-O-dihydrogenphosphate]", "values": [{"measurement": "duration of blood pressure reduction", "setting": "[2]; 0.29 mmoles/kg", "result": "five"}, {"measurement": "reduction of blood pressure", "setting": "[2]; 0.29 mmoles/kg, p<0.01", "result": "30-35%"}]}
{"molecule": "CCOP(=O)(O)Oc1ccc(CCNC)cc1O", "note": "[N-methyldopamine 4-O-ethyl-hydrogenphosphate]", "values": [{"measurement": "duration of effects on renal blood flow and resistances", "setting": "[1]", "result": "over 5 hours"}, {"measurement": "increase of renal blood flow", "setting": "[1]; 5 mg/kg (0.018 mmoles/kg)", "result": "+46%"}, {"measurement": "reduction of renal resistances", "setting": "[1]; 5 mg/kg (0.018 mmoles/kg)", "result": -32, "unit": "%"}]}
{"molecule": "NCCc1ccc(OP(=O)(O)O)c(O)c1", "note": "[Dopamine 4-O-dihydrogenphosphate, dopamine 4-O-dihydrogenphosphate]", "values": [{"measurement": "selectivity and duration of renal effect (in words)", "setting": "[1]", "result": "selective and long lasting"}, {"measurement": "decrease in renal resistances", "setting": "[1]; 5 mg/kg (0.02 mmoles/kg)", "result": -15, "unit": "%"}, {"measurement": "increase in renal blood flow", "setting": "[1]; 5 mg/kg (0.02 mmoles/kg)", "result": "+14.5%"}]}
{"molecule": "CNCCc1ccc(OP(=O)(O)OC)c(O)c1", "note": "[N-methyldopamine 4-O-methylhydrogenphosphate]", "values": [{"measurement": "duration of effects on renal blood flow and resistances", "setting": "[1]", "result": "over 5 hours"}, {"measurement": "increase of renal blood flow", "setting": "[1]; 5 mg/kg (0.019 mmole/kg)", "result": "+26%"}, {"measurement": "reduction of renal resistances", "setting": "[1]; 5 mg/kg (0.019 mmole/kg)", "result": -19, "unit": "%"}]}
